From publication PMC11210663 (Emerging Infectious Diseases, 2024)

System: influenza A(H1N1)pdm09 viruses tested during the 2022–23 influenza season
Format: biochemical, influenza A(H1N1)pdm09 virus
Details: read-out: NA inhibitors median IC50 2022–2023 (reference)

`CCC(CC)[C@H](NC(C)=O)[C@@H]1[C@H](O)[C@@H](C(=O)O)C[C@H]1N=C(N)N` [Peramivir, peramivir] showed an IC50 of 0.07 nM.
